Experimental data as given in patent US12269793B2, “Affinity illudofulvene conjugates” (AF Chemicals, LLC, priority 2019, dated 2025).
Read-outs that look alike come from different tables or passages of the source. *1 amine or outer side, *2 acyl side, *3 side chain or, on linkers, in order; H or OH if unused. Where a SMILES comes first, the peptide text is derived from it. The star is where a group is joined. X2 = CC1=C(CCCN*)C2=C(C)C3(CC3)[C@@](C)(O)C(=O)C2=C1; Morpholide = C1CN(*)CCO1; CO = O=C([*:1])[*:2]

How the values were obtained:
[1] = test system: 8392B Nontarget Cell Line (hematopoietic); details: read-out: Mean IC50 value, 48 hr exposure, ± SD, N = 3 unless otherwise indicated
[2] = test system: 8392B Nontarget Cell Line (hematopoietic); details: read-out: Mean IC50 value, 2 hr exposure, ± SD, N = 3 unless otherwise indicated
[3] = test system: MV522 Target Cell Line (lung-derived adenocarcinoma)
[4] = test system: 8392B Nontarget Cell Line (hematopoietic); assay: cells; details: 48 h, read-out: Mean IC50 value
in vitro = details: human
Description: (§1) MCF7 over express estrogen alpha-receptors.
(§2) MCF7 cells over express estrogen alpha-receptors.

[5] = test system: MV522 Target Cell Line (lung-derived adenocarcinoma); assay: cells; details: MV522, 2 h, read-out: Mean IC50 value
[6] = test system: 8392B Nontarget Cell Line (hematopoietic); assay: cells; details: 2 h, read-out: Mean IC50 value
MCF7 (ER positive) = format: cell-based; details: MCF7 (ER positive) versus HT29 (ER negative), result in words
Description: as §1, §2

[7] = test system: MV522 Target Cell Line (lung-derived adenocarcinoma); assay: cells; details: MV522, 48 h, read-out: Mean IC50 value

Row | SMILES | IC50 [1] [µM] | IC50 [2] [µM] | IC50 (in vitro) [µM] | IC50 [5] [µM] | IC50 [6] [µM] | preferential killing of ER positive cells (MCF7 (ER positive)) | further results
1 | CC1=CC2=C(C)C3(CC3)C(C)(O)C(=NO)C2=C1 (stereo not drawn) [Analog 224] | > 130 | > 200 |  |  |  |  | toxicity as monotherapeutic agent ([3]; MV522 target and 8392B nontarget cell line, result in words): minimal toxicity
2 | CCCCCCCC/C=C/CCCCCCCC(=O)OCC1=C(C)C=C2C(=O)[C@](C)(O)C3(CC3)C(C)=C21 [Analog 226] | > 59 | > 59 |  |  |  |  | 
3 | CC1=C(CCCNC(=O)[C@H](CC(C)C)NC(=O)[C@H](CCC(N)=O)NC(=O)[C@H](CC(C)C)NC(=O)[C@H](CCCCN)NC(=O)[C@H](CO)NC(=O)[C@H](CO)NC(=O)[C@H](Cc2c[nH]cn2)NC(=O)N2CCOCC2)C2=C(C)C3(CC3)[C@@](C)(O)C(=O)C2=C1 [Analog 221] ({Morpholide-CO}-HSSKLQL-X2) | > 21 | > 21 |  |  |  |  | IC50 ([3]; read-out: Mean IC50 value, MV522 Target Cell Line, 2 hr exposure, ± SD, N = 3 unless otherwise indicated): > 21 µM
4 | CC1=C(CCC(=O)Oc2ccc3c(c2)CCC2C3CC[C@]3(C)C(=O)CCC23)C2=C(C)C3(CC3)[C@@](C)(O)C(=O)C2=C1 (stereo partly drawn) [Analog 110] |  |  | > 19 | > 55 | > 55 | preferentially killed | IC50 [4]: 25.3 ± 2.1 µM
5 | CC1=C2C(=CC(C)(C)[C@@H]2O)C(=O)[C@](C)(O)C12CC2 [Illudin M, reference compound] |  |  |  |  |  | killed both ER negative and ER positive cells to the same extent | 
6 | CC1=C(CCC(=O)Oc2ccc3c(c2)CCC2C3CC[C@]3(C)C(O)CCC23)C2=C(C)C3(CC3)[C@@](C)(O)C(=O)C2=C1 (stereo partly drawn) [Analog 108] |  |  | > 55 | 12.3 ± 2.3 | > 55 |  | IC50 [7]: 520 ± 50 nM
